Patent US10519115B2, “Antidiabetic tricyclic compounds” (Merck Sharp & Dohme Corp., priority 2013, dated 2019)

Legend:
Human GPR40 [1] = target: T1, Human GPR40 (Homo sapiens, UniProt O14842); assay: Inositol Phosphate Turnover Assay 1 (HEK cells stably expressing human GPR40); type: cell-based; parameters: expressed in transfected cells; host or cells: HEK cells stably expressing the aequorin reporter; conditions: HEK cells stably expressing human GPR40, 96-well, 3H-inositol; read-out: Human GPR40 IP1 Assay 1, EC50
Method: (§1) Human and mouse GPR40 stable cell-lines were generated in CHO cells stably expressing NFAT BLA (Beta-lactamase). A human GPR40 stable cell-line was generated in HEK cells stably expressing the aequorin expressing reporter. The expression plasmids were transfected using lipofectamine (Life Technologies) following manufacturer's instructions. Stable cell-lines were generated following drug selection.
The assay was performed in 96-well format. HEK cells stably expressing human GPR40 were plated to be 60-80% confluent within 72 h. After 72 h, the plates were aspirated and the cells washed with inositol-free DMEM (ICN). The wash media was replaced with 150 μL of 3H-inositol labeling media (inositol-free media containing 0.4% human albumin or 0.4% mouse albumin, 1× pen/strep antibiotics, glutamine, 25 mM HEPES to which was added 3H-myo-inositol NEN #NET114A 1 mCi/mL, 25 Ci/mmol diluted 1:150 in loading media with a final specific radioactivity of 1 μCi/150 μL). Alternatively, the human and mouse albumin can be added after the overnight labeling step before the addition of LiCl.
The assay was typically run the next day after 18 h labeling. On the day of the assay, 5 μL of 300 mM LiCl was added to all wells and incubated at 37 degrees for 20 min. 0.75 μL of 200× compounds were added and incubated with the cells for 60 min at 37 degrees. The media was then aspirated off and the assay terminated with the addition of 60 μL 10 mM formic acid. The cells were lysed for 60 min at room temperature. 15-30 μL of lysate was mixed with 70 μL/1 mg YSi SPA beads (Amersham) in clear bottom Isoplates. The plates were shaken for 2 h at room temperature. Beads were allowed to settle and the plates were counted in the Wallac Microbeta.

Human GPR40 [2] = target: T1, Human GPR40; assay: FLIPR assay (agonist-induced calcium mobilization, GPR40/CHO NFAT BLA cells); type: cell-based; parameters: expressed in transfected cells
Method: as §1
FLIPR (Fluorimetric Imaging Plate Reader, Molecular Devices) assays were performed to measure agonist-induced calcium mobilization of the stable clones. For the FLIPR assay, one day before assay, GPR40/CHO NFAT BLA cells were seeded into black-wall-clear-bottom 384-well plates (Costar) at 1.4×10e4 cells/20 μL medium/well. The cells were incubated with 20 μl/well of the assay buffer (HBSS, 0.1% BSA, 20 mM HEPES, 2.5 mM probenecid, pH 7.4) containing 8 μM fluo-4, AM, 0.08% pluronic acid at room temperature for 100 minutes. Fluorescence output was measured using FLIPR. Compounds were dissolved in DMSO and diluted to desired concentrations with assay buffer. 13.3 μL/well of compound solution was added.

T1 sequence (O14842 whole entry): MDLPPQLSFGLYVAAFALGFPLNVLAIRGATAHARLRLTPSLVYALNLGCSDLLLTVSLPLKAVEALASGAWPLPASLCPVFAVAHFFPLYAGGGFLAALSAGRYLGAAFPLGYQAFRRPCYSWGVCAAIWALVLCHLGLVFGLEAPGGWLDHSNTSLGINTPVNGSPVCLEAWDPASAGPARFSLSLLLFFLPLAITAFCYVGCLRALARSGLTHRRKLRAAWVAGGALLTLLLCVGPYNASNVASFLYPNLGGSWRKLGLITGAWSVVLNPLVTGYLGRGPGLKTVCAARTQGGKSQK

Compound: CS(=O)(=O)N1CC2(CN(c3ccc(-c4cc(COc5cc6c(cn5)[C@H]5[C@@H](C6)[C@@H]5C(=O)O)c(F)cc4C(F)(F)F)c(F)c3)C2)C1 [Compound-4, (5aR,6S,6aS)-3-((2′,4-difluoro-4′-(6-(methylsulfonyl)-2,6-diazaspiro[3,3]heptan-2-yl)-6-(trifluoromethyl)-[1,1′-biphenyl]-3-yl)methoxy)-5,5a,6,6a-tetrahydrocyclopropa[4,5]-cyclopenta[1,2-c]pyridine-6-carboxylic acid]
- EC50 (Human GPR40 [1]): 19 nM
- EC50 (Human GPR40 [2]): 10 nM

Compound: CS(=O)(=O)N1CCC(c2ccc(-c3cc(COc4cc5c(cn4)[C@H]4[C@@H](C5)[C@@H]4C(=O)O)c(F)cc3C(F)(F)F)cc2)CC1 [Compound-5, (5aR,6S,6aS)-3-((4-fluoro-4′-(1-(methylsulfonyl)piperidin-4-yl)-6-(trifluoromethyl)-[1,1′-biphenyl]-3-yl)methoxy)-5,5a,6,6a-tetrahydrocyclopropa[4,5]cyclopenta[1,2-c]pyridine-6-carboxylic acid]
- EC50 (Human GPR40 [1]): 13 nM
- EC50 (Human GPR40 [2]): 4.2 nM

Compound: O=C(O)[C@H]1[C@@H]2Cc3cc(OCc4cc(-c5ccc(C6CCN(S(=O)(=O)C7CC7)CC6)cc5)c(C(F)(F)F)cc4F)ncc3[C@@H]21 [Compound-6, (5aR,6S,6aS)-3-((4′-(1-(cyclopropylsulfonyl)piperidin-4-yl)-4-fluoro-6-(trifluoromethyl)-[1,1′-biphenyl]-3-yl)methoxy)-5,5a,6,6a-tetrahydrocyclopropa[4,5]cyclopenta[1,2-c]pyridine-6-carboxylic acid]
- EC50 (Human GPR40 [1]): 47 nM
- EC50 (Human GPR40 [2]): 4.2 nM

Compound: Cn1nnc(-c2ccc(-c3cc(COc4cc5c(cn4)[C@H]4[C@@H](C5)[C@@H]4C(=O)O)c(F)cc3C(F)(F)F)c(F)c2)n1 [Compound-7, (5aR,6S,6aS)-3-((2′,4-difluoro-4′-(2-methyl-2H-tetrazol-5-yl)-6-(trifluoromethyl)-[1,1′-biphenyl]-3-yl)methoxy)-5,5a,6,6a-tetrahydrocyclopropa[4,5]cyclopenta[1,2-c]pyridine-6-carboxylic acid]
- EC50 (Human GPR40 [1]): 3.4 nM
- EC50 (Human GPR40 [2]): 6.7 nM

Compound: O=C(O)[C@H]1[C@@H]2Cc3cc(OCc4cc(-c5ccc(-c6ccc(Cl)cc6F)cc5F)c(C(F)(F)F)cc4F)ncc3[C@@H]21 [Compound-8, (5aR,6S,6aS)-3-((4″-chloro-2′,2″,4-trifluoro-6-(trifluoromethyl)-[1,1′:4′,1″-terphenyl]-3-yl)methoxy)-5,5a,6,6a-tetrahydrocyclopropa[4,5]cyclopenta[1,2-c]pyridine-6-carboxylic acid]
- EC50 (Human GPR40 [1]): 63 nM
- EC50 (Human GPR40 [2]): 12 nM

Compound: CC1(O)CCN(c2ccc(-c3cc(COc4cc5c(cn4)[C@H]4[C@@H](C5)[C@@H]4C(=O)O)c(F)cc3C(F)(F)F)c(F)c2)CC1 [Compound-11, (5aR,6S,6aS)-3-((2′,4-difluoro-4′-(4-hydroxy-4-methylpiperidin-1-yl)-6-(trifluoromethyl)-[1,1′-biphenyl]-3-yl)methoxy)-5,5a,6,6a-tetrahydrocyclopropa[4,5]cyclopenta[1,2-c]pyridine-6-carboxylic acid]
- EC50 (Human GPR40 [1]): 6.8 nM
- EC50 (Human GPR40 [2]): 5.6 nM

Compound: CC(C)(O)C1CCN(c2ccc(-c3cc(COc4cc5c(cn4)[C@H]4[C@@H](C5)[C@@H]4C(=O)O)c(F)cc3C(F)(F)F)c(F)c2)CC1 [Compound-12, (5aR,6S,6aS)-3-((2′,4-difluoro-4′-(4-(2-hydroxypropan-2-yl)piperidin-1-yl)-6-(trifluoromethyl)-[1,1′-biphenyl]-3-yl)methoxy)-5,5a,6,6a-tetrahydrocyclopropa[4,5]cyclopenta[1,2-c]-pyridine-6-carboxylic acid]
- EC50 (Human GPR40 [1]): 20 nM
- EC50 (Human GPR40 [2]): 6.1 nM

Compound: CC(C)(O)Cn1cc2c(n1)CN(c1ccc(-c3cc(COc4cc5c(cn4)[C@H]4[C@@H](C5)[C@@H]4C(=O)O)c(F)cc3C(F)(F)F)c(F)c1)C2 [Compound-13, (5aR,6S,6aS)-3-((2′,4-difluoro-4′-(2-(2-hydroxy-2-methylpropyl)pyrrolo[3,4-c]pyrazol-5(2H,4H,6H)-yl)-6-(trifluoromethyl)-[1,1′-biphenyl]-3-yl)methoxy)-5,5a,6,6a-tetrahydrocyclo-propa[4,5]cyclopenta[1,2-c]pyridine-6-carboxylic acid]
- EC50 (Human GPR40 [1]): 15 nM
- EC50 (Human GPR40 [2]): 6.7 nM
